Consider two molecules from patent US7566453B2, “Methods for treating melanomas” (Chugai Seiyaku Kabushiki Kaisha, priority 1998, dated 2009).

“And” between values parts separate entries of the source, which are not always exact repeats. Equal values may be shown once.

Assay [1] has as its system KPMM2 cells. The assay can be described thus: Human myeloma cell-implanted SCID mouse system, dose dependency of antibody (Example 3): survival, serum M protein. It counts as in vivo. The conditions noted are these: for Life-elongation ratio (%): vs drug non-administration group; for Survival period: mean±standard error. The protocol: For evaluation of antitumor effects, a xenograft model animal that was produced by implanting KPMM2 cells via the tail vein was used as in Working example 2. Thus, single-cell suspensions which were prepared by passing through a mesh KPMM2 cells that were minced after having been maintained in vivo were implanted at 0.2 ml per mouse via the tail vein (6×10^6 cells per mouse). The day when the cells were implanted was set at day 0.
They were given to mice at 0.1 ml per 10 g body weight of mouse via the tail vein on day 14 to create the 50, 10, 2, and 0.4 mg/kg administration groups.
Melphalan (L-PAM, manufactured by Sigma Chemical Co.) was used as a suspension of 0.1 mg/ml in 0.2% CMC solution in water. This was given orally at 0.1 ml per 10 g body weight of mouse (1 mg/kg weight) for 5 consecutive days starting on day 7.
The experiment was carried out on the following 10 groups: (A) the melphalan and the antibody non-administration group; (B) the melphalan single-drug administration group; (C) the each dose of antibody single-drug administration group , 4 groups (50, 10, 2, 0.4 mg/kg weight); and, (D) the melphalan and the each dose of antibody combined administration group, 4 groups (50, 10, 2, 0.4 mg/kg weight). The non-administration group included 12 mice per group, the melphalan administration group 6 mice per group, whereas each of the other groups included 7 mice. Furthermore, mice of the same lineage and purchased on the same day were raised without implanting a tumor, and the animals were used as negative control for M protein detection. The amount of M protein was calculated as described in Example 2.
Indices of the drug efficacy included the survival period, and the amount of M proteins on day 30, day 35, and day 42. For analysis of the survival period, a generalized Wilcoxon's test (SPSS for Windows ver. 6, SPSS inc.) was used. A significance level of 5% or lower was considered to be significant. For analysis of the amount of M protein in the serum, the ANOVA (Analysis of variance, SPSS for windows ver. 6, SPSS inc.) was first conducted. After confirming significance, Bonferroni method (SPSS for windows ver. 6, SPSS inc.) was used, and a significance level of 5% or lower was considered to be significant.

The test system of assay [2] is KPMM2 cells. The protocol:
The effects of anti-human IL-6 receptor antibody on sensitivity of KPMM2 cells to chemotherapeutic agents used for treatment of myeloma such as adriamycin (ADR, manufactured by Kyowa Hakko), vincristine (VCR, manufactured by Sigma Chemical Co.), and melphalan (L-PAM, manufactured by Sigma Chemical Co.) were evaluated.
KPMM2 is a multiple myeloma cell line derived from the ascites of a human patient with myeloma (see Japanese Unexamined Patent Publication (Kokai) No. 7-236475). […] The growth activity of the cell was evaluated by incorporation of ^3H-labeled thymidine (manufactured by Amersham) into the cell.
The KPMM2 cells that had been maintained were washed thoroughly with a fresh medium (RPMI1640 medium supplemented with 20% FBS), and then were adjusted to 4×10^5/ml, which was dispensed in 50 μl aliquots in a 96-well flat-bottomed microtiter plate (manufactured by Falcon). Furthermore, a medium containing a recombinant human IL-6 (Asagoe, Y. et al., Bio/Technology (1988) 6, 806-809), anti-human IL-6 receptor antibody hPM-1 (see the above reference example 1 or International Patent Application WO 92-15759), and the above chemotherapeutic agents or a fresh medium as control were added to make 200 μl in each well.
The plate was incubated at 37° C. for 4 days under the humidified condition in the presence of 5% CO2. At four hours before the end of incubation, 10 μl of ^3H-labeled thymidine solution (100 μCi/ml) was added to each well, and then incubated for more 4 hours. At the end of incubation, the cells were collected onto the glass filter (manufactured by Printed Filtermat A, WALLAC) using a harvester (Micro 96 Harvester, manufactured by SKATRON Instruments). The radioactivity incorporated into the cells was measured by a microbeta (1450 MicroBeta, manufactured by WALLAC).
The activity of growth inhibition on KPMM2 was expressed using the effect by a chemotherapeutic agent alone as the control. Using the incorporation of ^3H-labeled thymidine into the cell for each experimental group in which a each concentration of a chemotherapeutic agent was added as 100, the amount of ^3H-labeled thymidine incorporated into the cell in an experimental group in which anti-human IL-6 receptor antibody was simultaneously added was compared as an index.

In the case of “hPM-1: reshaped human PM-1 antibody: CDRs of mouse anti-IL-6 receptor antibody PM-1 grafted to human antibody, produced in CHO cells”, the “life elongation effect (survival period)” value in the assay on KPMM2 cells [1] (antibody single-drug administration, 50, 10, 2, 0.4 mg/kg) was “none of the doses in the antibody single-drug administration group gave a significant life elongation effect”. Moreover, in the assay with KPMM2 cells [1] (antibody single-drug administration, 50, 10, 2, 0.4 mg/kg on day 14 (FIG. 11)), the “amount of M protein in the serum on day 30” value is “none of the doses significantly inhibited the amount of M protein”. For the same molecule, the “Life-elongation ratio (%)” value came to 98% in the assay with KPMM2 cells [1] (hPM-1 0.4 mg/kg on day 14, CMC control); 101% with KPMM2 cells [1] (hPM-1 2 mg/kg on day 14, CMC control); 99% in the assay with KPMM2 cells [1] (hPM-1 10 mg/kg on day 14, CMC control); 101% in the assay with KPMM2 cells [1] (hPM-1 50 mg/kg on day 14, CMC control). In addition, the Survival period in the assay with KPMM2 cells [1] (hPM-1 0.4 mg/kg via the tail vein on day 14, CMC control) was determined as 40.3 ± 1.2; with KPMM2 cells [1] (hPM-1 2 mg/kg via the tail vein on day 14, CMC control), 41.4 ± 1.3; in the assay on KPMM2 cells [1] (hPM-1 10 mg/kg via the tail vein on day 14, CMC control), 40.4 ± 1.7; in the assay on KPMM2 cells [1] (hPM-1 50 mg/kg via the tail vein on day 14, CMC control) it was 41.6 ± 1.0. The “growth index (3H-thymidine incorporation, chemotherapeutic agent alone = 100)” value in the assay with KPMM2 cells [2] was 33.9 and 28.4.
For the molecule `NC(Cc1ccc(N(CCCl)CCCl)cc1)C(=O)O` (centres unmarked) [melphalan], the “Life-elongation ratio (%)” value with KPMM2 cells [1] (melphalan 1 mg/kg orally 5 days from day 7, no antibody) worked out at 142%. Besides, in the assay on KPMM2 cells [1] (melphalan 1 mg/kg orally, 5 consecutive days from day 7, no antibody), the Survival period turned out to be 58.2 ± 1.8. The “Life-elongation ratio (%), value in parentheses” value in the assay on KPMM2 cells [1] (melphalan 1 mg/kg, no antibody, melphalan single-drug administration group as control) is given as 100%. Further, in the assay with KPMM2 cells [1] (melphalan alone, 1 mg/kg), the “life elongation effect (survival period)” value is given as “significant life elongation effect”. In the assay on KPMM2 cells [1] (melphalan single-drug administration, 1 mg/kg (FIG. 11)), the “amount of M protein in the serum on day 30” value was “significantly inhibited”. In the assay with KPMM2 cells [2] (fixed concentration of anti-human IL-6 receptor antibody, 0.1 or 1 ng/ml IL-6 (FIG. 1 to 6)), the “relationship of growth index with the concentration of chemotherapeutic agent” value is recorded as “decreased with the increase in melphalan concentration”.
